From ChEMBL document CHEMBL1201862, “PubChem BioAssay data set” (2004)
Calls of active or inactive are those of the source.

Assays:
[1] = molecular target: T1, Delta-type opioid receptor (Homo sapiens, UniProt P41143); assay: Counterscreen for agonists of heterodimerization of the mu 1 (OPRM1) and delta 1 (OPRD1) opioid receptors: Luminescence-based cell-based high throughput dose response assay to identify agonists of OPRD1 homodimerization. [Related pubchem assays (depositor defined):AID504326, AID504355, AID504692, AID504904, AID504905]; type: functional
[2] = system: A-375; assay: MITF: Counter assay: A375 proliferation Measured in Cell-Based System Using Plate Reader - 2084-03_Inhibitor_Dose_DryPowder_Activity. [Related pubchem assays (depositor defined):AID488944]; type: functional; details: Homo sapiens
[3] = molecular target: T2, Mu-type opioid receptor (Homo sapiens, UniProt P35372); assay: Counterscreen for agonists of heterodimerization of the mu 1 (OPRM1) and delta 1 (OPRD1) opioid receptors: Luminescence-based cell-based high throughput dose response assay to identify agonists of OPRM1 homodimerization.; type: functional
[4] = molecular target: T3, Microphthalmia-associated transcription factor (Homo sapiens, UniProt O75030); assay: reducers of TRPM1 reporter luminescence, concentration series – cell-based, SK-MEL-5, cherry-picked, set 3, MITF inhibitor project, dose response (AID 493073); type: functional;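 further: SK-MEL-5 melanoma cells with luciferase driven by the MITF target TRPM1 promoter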
T3 sequence (O75030 whole entry): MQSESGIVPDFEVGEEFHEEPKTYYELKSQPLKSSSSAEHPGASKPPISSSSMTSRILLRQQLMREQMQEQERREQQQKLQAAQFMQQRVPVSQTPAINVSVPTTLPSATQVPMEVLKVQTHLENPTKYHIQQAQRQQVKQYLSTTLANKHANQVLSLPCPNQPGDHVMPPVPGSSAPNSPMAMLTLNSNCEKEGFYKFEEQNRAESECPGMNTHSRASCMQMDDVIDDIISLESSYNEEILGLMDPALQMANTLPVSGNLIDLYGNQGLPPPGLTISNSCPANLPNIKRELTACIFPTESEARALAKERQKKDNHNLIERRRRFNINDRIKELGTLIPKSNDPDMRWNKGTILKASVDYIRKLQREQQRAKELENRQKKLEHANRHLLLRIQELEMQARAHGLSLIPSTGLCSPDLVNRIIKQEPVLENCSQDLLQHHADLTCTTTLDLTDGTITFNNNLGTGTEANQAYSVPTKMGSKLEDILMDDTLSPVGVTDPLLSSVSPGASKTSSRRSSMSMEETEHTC

[5] = molecular target: 5-hydroxytryptamine receptor 5A (Homo sapiens, UniProt P47898); assay: Counterscreen for agonists of OPRM1-OPRD1 heterodimerization: luminescence-based cell-based high throughput dose response assay to identify agonists of 5-hydroxytryptamine (serotonin) 5A receptor (HTR5A). [Related pubchem assays (depositor defined):AID504326, AID504355, AID504692, AID504904, AID504905]; type: functional
[6] = system: A-375; assay: proliferation inhibition in MITF-low A375 cells – cell-based, cherry-pick samples, set 2, counter-screen for MITF modulator project, dose response (AID 540335); type: functional; details: Homo sapiens
[7] = molecular target: T2, Mu-type opioid receptor; assay: mu opioid receptor activators, image-based, SAR follow-up (AID 2352); type: functional
[8] = molecular target: T4, Kappa-type opioid receptor (Homo sapiens, UniProt P41145); assay: kappa opioid receptor blockers, image-based, SAR follow-up (AID 2348); type: functional
[9] = molecular target: T4, Kappa-type opioid receptor; assay: kappa opioid receptor activation potency – imaging, image-based, SAR follow-up (AID 2359); type: functional
[10] = molecular target: T2, Mu-type opioid receptor; assay: mu opioid receptor blockers – image-based, SAR follow-up (AID 2420); type: functional;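 further: compounds added before stimulation of receptor with agonist DAMGO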
[11] = molecular target: T1, Delta-type opioid receptor; assay: DOR agonists, SAR follow-up, image-based (AID 2370); type: functional
[12] = molecular target: T4, Kappa-type opioid receptor; assay: SAR analysis of small molecule agonists of the kappa opioid receptor via a luminescent beta-arrestin assay. [Related pubchem assays (depositor defined):AID1777, AID1786, AID1966, AID2133, AID2136, AID2348, AID2352, AID2357, AID2359, AID2370, AID2420, AID2478, AID2491, AID2492, AID2493, AID2497, AID2498, AID2500, AID449737, AID488822, AID488842]; type: functional
[13] = molecular target: T1, Delta-type opioid receptor; assay: delta opioid receptor blockers – image-based, SAR follow-up (AID 2357); type: functional
[14] = system: Candida albicans; assay: antifungal activity against resistant Candida strain – CaCi-8, fluconazole, Alamar Blue, dry powder, dose response (AID 488807); type: functional, organism-based
[15] = Trypanosoma cruzi growth suppression in host cells – NIH3T3 host cells, beta-gal luminescence, confirmation (AID 2044); type: functional, cell-based;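 further: intracellular parasites grown in NIH/3T3 mouse fibroblasts as host cells; luminescent beta-galactosidase reporter signal from transgenic T. cruzi replicating inside host cells; inhibitors lower the luminescence signal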
[16] = system: HEK293; assay: cells; details: Homo sapiens
[17] = Luminescence Cell-Based Dose Retest to Confirm Inhibitors of Cancer Stem Cells. [Related pubchem assays (depositor defined):AID2717, AID2721]; type: functional; details: Homo sapiens
[18] = viability of uninfected HEp-2 cells – cell-based, HTS, cytotoxicity control for RSV inhibitor project, dose response (AID 2410); type: functional; details: human respiratory syncytial virus
[19] = system: HEK293; assay: cells; details: Homo sapiens; remark: listed apart in the source
[20] = viability of HCT116 lacking mutant beta-catenin – cell-based, human colon tumor, dose response (AID 1045); type: functional;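 further: HCT116 colon tumor cells with beta catenin knocked out; cells exposed to compound for 60 hours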
[21] = NIH3T3 cell viability loss – ATP luminescence, mouse fibroblasts, counter-screen, dose response (AID 2010); type: functional, cell-based;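 further: cells exposed to compound for about 90 hours before reading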
[22] = molecular target: Voltage-dependent T-type calcium channel subunit alpha-1H (Homo sapiens, UniProt O95180); type: functional;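 further: channel activity triggered by adding a high calcium stimulation buffer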
[23] = viability of PTEN-deleted HCT116 cells – cell-based, HCT116 PTEN knockout, dose response (AID 1047); type: functional;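 further: HCT116 colon tumor cells with PTEN knocked out; cells exposed to compound for 60 hours before readout; potency for loss of cell viability measured by luminescence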
[24] = cells
[25] = Luminescence Cell-Based Dose Response Follow up to Identify Inhibitors of Platelet Dense Granule Release. [Related pubchem assays (depositor defined):AID1663, AID1678, AID2398]; type: functional
[26] = molecular target: Phospholipase D2 (Homo sapiens, UniProt O14939); assay: cellular phospholipase D2 inhibition IC50 – cell-based, dose response (AID 602147); type: functional;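 further: cellular assay in HEK293 cells overexpressing GFP-tagged PLD2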
[27] = molecular target: Phospholipase D1 (Homo sapiens, UniProt Q13393); assay: cellular phospholipase D1 inhibition IC50 – cell-based, dose response (AID 602151); type: functional;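 further: cellular PLD1 assay in Calu-1 cells stimulated with PMA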
Chain of Phospholipase D1 (Q13393 whole entry): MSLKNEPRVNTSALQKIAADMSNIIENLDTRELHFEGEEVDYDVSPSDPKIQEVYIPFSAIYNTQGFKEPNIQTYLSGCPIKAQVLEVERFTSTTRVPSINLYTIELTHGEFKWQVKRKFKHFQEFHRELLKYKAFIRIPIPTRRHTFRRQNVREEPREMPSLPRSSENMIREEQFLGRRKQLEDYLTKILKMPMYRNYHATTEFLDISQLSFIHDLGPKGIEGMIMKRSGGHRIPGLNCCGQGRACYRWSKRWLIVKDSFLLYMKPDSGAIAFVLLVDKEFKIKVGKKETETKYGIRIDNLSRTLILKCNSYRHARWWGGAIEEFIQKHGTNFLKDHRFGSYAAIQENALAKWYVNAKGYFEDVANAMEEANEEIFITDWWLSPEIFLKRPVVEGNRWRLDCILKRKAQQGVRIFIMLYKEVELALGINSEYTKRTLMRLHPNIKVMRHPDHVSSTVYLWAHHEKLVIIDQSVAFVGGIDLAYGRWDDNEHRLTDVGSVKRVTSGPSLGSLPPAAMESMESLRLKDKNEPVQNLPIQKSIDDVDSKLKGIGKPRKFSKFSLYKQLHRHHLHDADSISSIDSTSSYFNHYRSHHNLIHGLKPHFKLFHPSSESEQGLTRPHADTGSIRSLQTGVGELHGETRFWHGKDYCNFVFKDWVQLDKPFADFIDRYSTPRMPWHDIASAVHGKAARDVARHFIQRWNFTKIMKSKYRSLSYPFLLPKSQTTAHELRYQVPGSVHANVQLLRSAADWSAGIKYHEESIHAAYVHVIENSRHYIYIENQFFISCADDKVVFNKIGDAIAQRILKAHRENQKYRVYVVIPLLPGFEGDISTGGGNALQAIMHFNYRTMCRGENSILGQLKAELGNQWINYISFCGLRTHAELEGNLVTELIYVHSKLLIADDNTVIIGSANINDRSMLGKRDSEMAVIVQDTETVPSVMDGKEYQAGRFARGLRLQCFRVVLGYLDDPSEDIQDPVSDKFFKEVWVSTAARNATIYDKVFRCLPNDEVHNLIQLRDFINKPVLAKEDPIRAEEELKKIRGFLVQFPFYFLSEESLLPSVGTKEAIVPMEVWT

T1 sequence (P41143 whole entry): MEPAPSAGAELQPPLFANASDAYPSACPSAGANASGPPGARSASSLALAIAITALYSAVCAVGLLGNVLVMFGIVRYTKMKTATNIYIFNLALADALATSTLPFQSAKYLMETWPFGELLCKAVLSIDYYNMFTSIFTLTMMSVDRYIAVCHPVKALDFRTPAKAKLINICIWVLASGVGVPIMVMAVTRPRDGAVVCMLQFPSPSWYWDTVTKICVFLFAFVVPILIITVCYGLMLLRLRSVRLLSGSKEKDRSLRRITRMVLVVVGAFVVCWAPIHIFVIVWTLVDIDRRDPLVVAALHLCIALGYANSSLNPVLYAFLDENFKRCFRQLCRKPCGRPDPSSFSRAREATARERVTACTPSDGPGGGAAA
T4 sequence (P41145 whole entry): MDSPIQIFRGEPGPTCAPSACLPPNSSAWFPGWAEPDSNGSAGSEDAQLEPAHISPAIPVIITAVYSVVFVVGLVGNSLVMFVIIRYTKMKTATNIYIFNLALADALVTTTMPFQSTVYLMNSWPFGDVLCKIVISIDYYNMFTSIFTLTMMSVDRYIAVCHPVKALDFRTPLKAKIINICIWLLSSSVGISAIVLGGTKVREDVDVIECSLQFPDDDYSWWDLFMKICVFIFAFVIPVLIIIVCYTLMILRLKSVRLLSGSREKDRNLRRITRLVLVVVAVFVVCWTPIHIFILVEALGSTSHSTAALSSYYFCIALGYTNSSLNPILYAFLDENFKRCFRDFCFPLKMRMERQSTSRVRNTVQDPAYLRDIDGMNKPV
T2 sequence (P35372 whole entry): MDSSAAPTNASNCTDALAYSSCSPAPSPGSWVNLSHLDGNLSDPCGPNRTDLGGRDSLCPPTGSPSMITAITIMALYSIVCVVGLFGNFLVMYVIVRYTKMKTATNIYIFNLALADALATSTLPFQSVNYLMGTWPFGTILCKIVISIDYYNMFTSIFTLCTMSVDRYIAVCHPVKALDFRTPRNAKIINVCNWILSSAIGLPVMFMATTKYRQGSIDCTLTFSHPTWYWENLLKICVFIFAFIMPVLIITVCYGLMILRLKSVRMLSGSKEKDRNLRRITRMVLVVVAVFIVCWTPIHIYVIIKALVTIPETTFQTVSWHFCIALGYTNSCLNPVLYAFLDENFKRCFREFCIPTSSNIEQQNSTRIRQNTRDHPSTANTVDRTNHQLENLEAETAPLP
Chain of Voltage-dependent T-type calcium channel subunit alpha-1H (O95180 whole entry): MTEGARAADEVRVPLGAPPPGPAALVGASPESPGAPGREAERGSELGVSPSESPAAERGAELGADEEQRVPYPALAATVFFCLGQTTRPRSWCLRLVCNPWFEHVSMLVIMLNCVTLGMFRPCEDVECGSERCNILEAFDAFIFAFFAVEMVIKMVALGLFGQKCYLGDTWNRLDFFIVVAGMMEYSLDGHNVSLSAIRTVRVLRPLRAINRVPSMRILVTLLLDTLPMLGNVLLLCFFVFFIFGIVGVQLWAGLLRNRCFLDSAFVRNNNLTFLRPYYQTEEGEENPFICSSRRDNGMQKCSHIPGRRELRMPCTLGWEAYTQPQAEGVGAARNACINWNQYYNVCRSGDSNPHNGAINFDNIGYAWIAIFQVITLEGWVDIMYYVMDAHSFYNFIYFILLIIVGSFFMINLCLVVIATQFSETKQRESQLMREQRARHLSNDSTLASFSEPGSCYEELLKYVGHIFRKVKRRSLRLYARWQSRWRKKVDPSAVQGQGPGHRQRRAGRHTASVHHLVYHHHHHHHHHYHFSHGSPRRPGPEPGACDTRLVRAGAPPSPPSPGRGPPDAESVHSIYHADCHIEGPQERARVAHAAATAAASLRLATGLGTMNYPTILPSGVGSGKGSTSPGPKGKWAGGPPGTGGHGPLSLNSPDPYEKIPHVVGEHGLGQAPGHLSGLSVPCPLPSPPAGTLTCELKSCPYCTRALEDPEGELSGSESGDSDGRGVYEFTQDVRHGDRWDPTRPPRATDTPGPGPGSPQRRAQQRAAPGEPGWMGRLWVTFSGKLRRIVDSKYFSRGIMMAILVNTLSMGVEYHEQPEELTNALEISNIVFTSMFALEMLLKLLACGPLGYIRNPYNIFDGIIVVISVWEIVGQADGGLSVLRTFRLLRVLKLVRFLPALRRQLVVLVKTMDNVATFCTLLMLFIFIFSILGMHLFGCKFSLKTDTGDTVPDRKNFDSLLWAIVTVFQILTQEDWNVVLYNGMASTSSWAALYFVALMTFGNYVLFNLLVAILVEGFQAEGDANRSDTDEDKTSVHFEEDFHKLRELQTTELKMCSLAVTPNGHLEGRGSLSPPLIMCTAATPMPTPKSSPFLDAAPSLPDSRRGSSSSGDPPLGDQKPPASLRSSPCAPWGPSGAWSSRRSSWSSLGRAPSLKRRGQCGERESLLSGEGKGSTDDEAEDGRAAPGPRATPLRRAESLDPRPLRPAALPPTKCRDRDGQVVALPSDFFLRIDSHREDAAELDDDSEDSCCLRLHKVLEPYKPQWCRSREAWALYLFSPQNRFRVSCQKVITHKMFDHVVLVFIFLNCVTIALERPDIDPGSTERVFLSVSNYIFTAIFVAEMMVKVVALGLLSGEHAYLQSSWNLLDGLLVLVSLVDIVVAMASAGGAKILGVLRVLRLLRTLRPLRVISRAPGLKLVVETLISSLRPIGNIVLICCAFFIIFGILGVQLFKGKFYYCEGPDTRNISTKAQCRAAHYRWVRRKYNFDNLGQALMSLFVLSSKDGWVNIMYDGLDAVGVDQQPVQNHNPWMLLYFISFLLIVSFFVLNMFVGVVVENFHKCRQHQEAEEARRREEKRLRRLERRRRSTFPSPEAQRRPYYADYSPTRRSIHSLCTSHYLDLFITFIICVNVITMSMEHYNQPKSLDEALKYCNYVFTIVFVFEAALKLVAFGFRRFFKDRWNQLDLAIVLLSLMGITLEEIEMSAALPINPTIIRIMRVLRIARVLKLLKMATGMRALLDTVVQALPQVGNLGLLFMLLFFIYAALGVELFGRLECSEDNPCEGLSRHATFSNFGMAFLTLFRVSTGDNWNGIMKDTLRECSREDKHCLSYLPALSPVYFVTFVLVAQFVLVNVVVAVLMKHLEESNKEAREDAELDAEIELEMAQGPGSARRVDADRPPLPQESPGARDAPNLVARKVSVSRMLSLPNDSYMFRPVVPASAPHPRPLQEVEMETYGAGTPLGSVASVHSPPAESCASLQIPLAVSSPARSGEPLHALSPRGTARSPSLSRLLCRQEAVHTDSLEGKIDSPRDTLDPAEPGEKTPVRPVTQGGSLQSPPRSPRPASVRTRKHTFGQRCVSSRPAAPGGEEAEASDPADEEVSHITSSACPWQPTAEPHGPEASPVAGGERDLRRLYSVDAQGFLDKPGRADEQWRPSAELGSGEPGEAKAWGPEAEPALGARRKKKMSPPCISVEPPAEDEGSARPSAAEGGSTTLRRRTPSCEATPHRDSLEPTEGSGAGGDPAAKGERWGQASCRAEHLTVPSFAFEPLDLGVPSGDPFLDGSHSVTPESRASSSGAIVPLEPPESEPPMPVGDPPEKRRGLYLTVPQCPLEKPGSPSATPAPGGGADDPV
Chain of 5-hydroxytryptamine receptor 5A (P47898 whole entry): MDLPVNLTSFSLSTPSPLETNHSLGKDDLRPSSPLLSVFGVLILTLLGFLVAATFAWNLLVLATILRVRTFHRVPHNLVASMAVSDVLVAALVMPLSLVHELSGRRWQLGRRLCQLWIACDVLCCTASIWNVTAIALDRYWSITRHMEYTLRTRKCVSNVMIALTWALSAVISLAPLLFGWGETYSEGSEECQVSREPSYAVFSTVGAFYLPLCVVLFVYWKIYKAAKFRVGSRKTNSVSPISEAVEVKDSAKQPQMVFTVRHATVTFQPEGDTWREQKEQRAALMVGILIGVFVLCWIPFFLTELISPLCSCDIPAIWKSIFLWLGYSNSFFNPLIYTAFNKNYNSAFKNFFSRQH

Cc1ccc(NC(=O)c2ncn(CCCN[C@H](C)c3cccc4ccccc34)n2)cc1C
EC50 [1]: > 92.4 µM (inactive) | AC50 [2]: 25.8 µM (active) | EC50 [3]: > 10.3 µM (inactive) | AC50 [4]: 22.7 µM (active) | EC50 [5]: > 92.4 µM (inactive)

CCOc1ccccc1-c1nc(-c2ccc(C)nc2OC)no1
AC50 [2]: > 35 µM (active) | AC50 [6]: > 35 µM (active)

O=C(c1ccccn1)N(Cc1cc2ccccc2[nH]c1=O)C1CCCCC1
EC50 [7]: > 32 µM (inactive) | IC50 [8]: > 32 µM (inactive) | EC50 [9]: 18.1 µM (inactive) | IC50 [10]: > 32 µM (inactive) | EC50 [11]: > 32 µM (inactive) | EC50 [12]: > 10 µM (inactive) | IC50 [13]: > 32 µM (inactive)

COC(=O)Cn1nc(-c2ccc(C)cc2)c2ccccc21
AC50 [14]: 1.45 µM (active)

CCN(CC)S(=O)(=O)c1ccc2c(c1)C(=NO)c1cc(S(=O)(=O)N(CC)CC)ccc1-2
EC50 [15]: 0.84 µM (active) | EC50 [16]: > 59.6 µM (inactive) | AC50 [17]: 0.742 µM (active) | CC50 [18]: 9.81 µM (active) | EC50 [19]: > 59.6 µM (inactive) | EC50 [20]: 7.08 µM (active) | EC50 [21]: < 6 µM (inconclusive) | EC50 [22]: 1.6 µM (active) | EC50 [23]: 6.41 µM (active) | IC50 [24]: 5.19 µM (active)

CC(=O)Nc1c(C#N)c(-c2ccccc2)c(C#N)c(=O)n1-c1ccc(C)cc1
EC50 [25]: 129 µM (active)

C[C@@H](CN1CCC(n2c(=O)[nH]c3cc(F)ccc32)CC1)NC(=O)c1ccc(F)c(F)c1
IC50 [26]: 0.84 µM (active) | IC50 [27]: 0.012 µM (active)
